Experimental data: patent US20240218022A1, “ANTI-VISTA MACROCYCLIC PEPTIDES AND COMPOSITIONS” (BRISTOL-MYERS SQUIBB COMPANY, priority 2022, published 2024)
Like-named read-outs stand apart in the source and are kept apart here. Each block holds one molecule with its values, some of them ahead of it. Starred links: 1 amine or outer side, 2 acyl side, 3 side chain; linkers in the order of their positions; H or OH if unused. Positions of bridges follow the written chain, without caps; N, C: chain ends. Non-standard residues stand in square brackets, D forms with d. Residues, ends and D or L forms follow the SMILES beside them. ξ: configuration not given here. Phe(3,4,5-F3) = N[C@@H](Cc1cc(F)c(F)c(F)c1)C(=O)O; Phe(3-Me) = Cc1cccc(C[C@H](N)C(=O)O)c1; γGlu = O=C(O)[C@H](CCC(=O)[*:2])N[*:1]; 2Nal = N[C@@H](Cc1ccc2ccccc2c1)C(=O)O; βAsp = O=C(O)[C@H](CC(=O)[*:2])N[*:1]; NMeIle(3ξ) = CCC(C)[C@H](NC)C(=O)O; NMeThr(3ξ) = CN[C@H](C(=O)O)C(C)O; Tic = O=C(O)[C@@H]1Cc2ccccc2CN1; Cit = NC(=O)NCCC[C@H](N)C(=O)O; NMeL = CN[C@@H](CC(C)C)C(=O)O; Ahp(2) = CCCCC[C@H](N)C(=O)O; NMeNle = CCCC[C@H](NC)C(=O)O; Tle = CC(C)(C)[C@H](N)C(=O)O; NHexGly = CCCCCCNCC(=O)O; Nle = CCCC[C@H](N)C(=O)O; Orn = NCCC[C@H](N)C(=O)O; Aun = NCCCCCCCCCCC(=O)O; AEEA = NCCOCCOCC(=O)O

Target: T1, mouse VISTA (mVISTA) (Mus musculus, UniProt Q9D659)
T1 construct: expressed in transfected cells; host or cells: Human embryonic kidney 293T cells
T1 sequence (Q9D659 33-308): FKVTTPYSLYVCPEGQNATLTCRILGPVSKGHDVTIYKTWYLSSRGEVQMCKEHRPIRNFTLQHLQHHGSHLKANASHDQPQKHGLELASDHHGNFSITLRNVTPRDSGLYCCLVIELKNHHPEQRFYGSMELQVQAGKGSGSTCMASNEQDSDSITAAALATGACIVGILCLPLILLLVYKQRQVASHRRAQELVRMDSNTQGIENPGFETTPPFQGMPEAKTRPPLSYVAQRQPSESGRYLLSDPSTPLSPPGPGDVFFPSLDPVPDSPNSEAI
Experiment: Cell-Based Binding High-Content Assay For mVISTA (HC CBA mVISTA)
Conditions: read-out: HC CBA mVISTA IC50
Outline: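 Competition of compound with a biotinylated peptide (final 2 nM, 30 min at RT) for binding to mVISTA on 293T cells, run under no-wash or wash (1 h compound preincubation then removal) formats. Readout by Alexa 647–streptavidin imaging on a high-content platform; four-parameter logistic fit gave IC50.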

[1] = 293T cells expressing mouse VISTA, competition with biotinylated peptide (2 nM)
[2] = the 19th table, scaffold drawing 22

IC50 [1]: 0.0111 µM
SMILES: CCCCCCN1CC(=O)N[C@@H](Cc2ccc(O)cc2)C(=O)N[C@@H](CCCCC)C(=O)N[C@@H](CC(N)=O)C(=O)N[C@@H](C)C(=O)N[C@@H](CC(C)C)C(=O)N[C@@H](CCCCC)C(=O)N2CCC[C@H]2C(=O)N[C@@H](C(C)C)C(=O)N[C@@H](CO)C(=O)N[C@H](C(=O)NCC(N)=O)CSCC(=O)N[C@@H](Cc2ccccc2)C(=O)N[C@@H](Cc2ccc(O)cc2)C(=O)N[C@@H](CC(=O)O)C1=O [Example 1032] ({CH2CO}-FYD[NHexGly]Y[Ahp(2)]NAL[Ahp(2)]PVSCG-NH2; thioether N-14)

IC50: 0.031 µM
SMILES: CCCCCCN1CC(=O)N[C@@H](Cc2ccc(O)cc2)C(=O)N[C@@H](CC(C)C)C(=O)N[C@@H](CC(N)=O)C(=O)N[C@@H](CCCNC(=N)N)C(=O)N(C)[C@@H](CC(C)C)C(=O)N[C@@H](CCCCC)C(=O)N2CCC[C@H]2C(=O)N[C@@H](C(C)(C)C)C(=O)N[C@@H](CO)C(=O)N[C@H](C(=O)N[C@@H](CCC(=O)NCCCCCCCCCCC(=O)O)C(=O)O)CSCC(=O)N[C@@H](Cc2ccccc2)C(=O)N[C@@H](Cc2ccc(O)cc2)C(=O)N[C@@H](CC(=O)O)C1=O [Example 2135] ({CH2CO}-FYD[NHexGly]YLNR[NMeL][Ahp(2)]P[Tle]SC[γGlu][Aun]-OH; thioether N-14)

IC50: 0.0338 µM
SMILES: CCCCCCN1CC(=O)N[C@@H](Cc2ccc(O)cc2)C(=O)N[C@@H](CCCC)C(=O)N[C@@H](CC(N)=O)C(=O)N[C@@H](CCCNC(=N)N)C(=O)N(C)[C@@H](CCCC)C(=O)N[C@@H](CCCCC)C(=O)N2CCC[C@H]2C(=O)N[C@@H](C(C)(C)C)C(=O)N[C@@H](CO)C(=O)N[C@H](C(=O)N[C@@H](CC(N)=O)C(=O)O)CSCC(=O)N[C@@H](Cc2ccccc2)C(=O)N[C@@H](Cc2c[nH]c3ccccc23)C(=O)N[C@@H](CC(=O)O)C1=O [Example 1402] ({CH2CO}-FWD[NHexGly]Y[Nle]NR[NMeNle][Ahp(2)]P[Tle]SCN-OH; thioether N-14)

IC50: 0.0113 µM
SMILES: CCCCCCN1CC(=O)N[C@@H](Cc2ccc(O)cc2)C(=O)N[C@@H](CCCC)C(=O)N[C@@H](CC(=O)O)C(=O)N[C@@H](CCCN)C(=O)N[C@@H](CC(C)C)C(=O)N[C@@H](CCCCC)C(=O)N2CCC[C@H]2C(=O)N[C@@H](C(C)C)C(=O)N[C@@H](CC(=O)O)C(=O)N[C@H](C(=O)N[C@@H](CC(=O)O)C(N)=O)CSCC(=O)N[C@@H](Cc2ccccc2)C(=O)N[C@@H](Cc2c[nH]c3ccccc23)C(=O)N[C@@H](CC(=O)O)C1=O [Example 1353] ({CH2CO}-FWD[NHexGly]Y[Nle]D[Orn]L[Ahp(2)]PVDCD-NH2; thioether N-14)

IC50 (the 20th table, scaffold drawing 23): 0.017 µM
SMILES: CCCCCCN1CC(=O)N[C@@H](Cc2ccc(O)cc2)C(=O)N[C@@H](CCCC)C(=O)N[C@@H](CC(N)=O)C(=O)N[C@@H](CCCNC(=N)N)C(=O)N[C@@H](CC(C)C)C(=O)N[C@@H](CCCCC)C(=O)N2CCC[C@H]2C(=O)N[C@@H](C(C)C)C(=O)N[C@@H](CC(=O)O)C(=O)N[C@H](C(=O)NCC(=O)O)CSCC(=O)N[C@@H](Cc2cc(F)c(F)c(F)c2)C(=O)N[C@@H](Cc2c[nH]c3ccccc23)C(=O)N[C@@H](CC(=O)O)C1=O [compound 1456] ({CH2CO}-[Phe(3,4,5-F3)]WD[NHexGly]Y[Nle]NRL[Ahp(2)]PVDCG-OH; thioether N-14)

IC50 [1]: 0.008 µM
SMILES: CCCCCCN1CC(=O)N[C@@H](Cc2ccc(O)cc2)C(=O)N[C@@H](CCCCC)C(=O)N[C@@H](CC(N)=O)C(=O)N[C@@H](CCCNC(=N)N)C(=O)N[C@@H](C)C(=O)N[C@@H](CCCCC)C(=O)N2CCC[C@H]2C(=O)N[C@@H](C(C)C)C(=O)N[C@@H](CO)C(=O)N[C@H](C(=O)NCC(=O)O)CSCC(=O)N[C@@H](Cc2ccccc2)C(=O)N[C@@H](Cc2ccc(O)cc2)C(=O)N[C@@H](CC(=O)O)C1=O [Example 1090] ({CH2CO}-FYD[NHexGly]Y[Ahp(2)]NRA[Ahp(2)]PVSCG-OH; thioether N-14)

IC50 [2]: 0.0094 µM
SMILES: CCCCCCN1CC(=O)N[C@@H](Cc2ccc(O)cc2)C(=O)N[C@@H](CCCC)C(=O)N[C@@H](CC(=O)O)C(=O)N[C@@H](CCCN)C(=O)N[C@@H](CC(C)C)C(=O)N[C@@H](CCCCC)C(=O)N2CCC[C@H]2C(=O)N[C@@H](C(C)C)C(=O)N[C@@H](CC(=O)O)C(=O)N[C@H](C(=O)N[C@@H](CO)C(N)=O)CSCC(=O)N[C@@H](Cc2cccc(C)c2)C(=O)N[C@@H](Cc2c[nH]c3ccccc23)C(=O)N[C@@H](CC(=O)O)C1=O [compound 1427] ({CH2CO}-[Phe(3-Me)]WD[NHexGly]Y[Nle]D[Orn]L[Ahp(2)]PVDCS-NH2; thioether N-14)

IC50 [1]: 0.0129 µM
SMILES: CCCCCCN1CC(=O)N[C@@H](Cc2ccc(O)cc2)C(=O)N[C@@H](CCCCC)C(=O)N[C@@H](CC(=O)O)C(=O)N[C@@H](CCCNC(=N)N)C(=O)N[C@@H](CC(C)C)C(=O)N[C@@H](CCCCC)C(=O)N2CCC[C@H]2C(=O)N[C@@H](C(C)C)C(=O)N[C@@H](CC(=O)O)C(=O)N[C@H](C(=O)N[C@@H](CCC(=O)O)C(N)=O)CSCC(=O)N[C@@H](Cc2ccccc2)C(=O)N[C@@H](Cc2ccc(O)cc2)C(=O)N[C@@H](CC(=O)O)C1=O [Example 1004] ({CH2CO}-FYD[NHexGly]Y[Ahp(2)]DRL[Ahp(2)]PVDCE-NH2; thioether N-14)

IC50 (cell-based binding high-content assay, mVISTA, the 16th table): 0.0103 µM
SMILES: CCCCCCN1CC(=O)N[C@@H](Cc2ccc(O)cc2)C(=O)N[C@@H](CCCC)C(=O)N[C@@H](CC(N)=O)C(=O)N[C@@H](CCCNC(N)=O)C(=O)N2Cc3ccccc3C[C@H]2C(=O)N[C@@H](CCCCC)C(=O)N2CCC[C@H]2C(=O)N[C@@H](C(C)C)C(=O)N[C@@H](CC(=O)O)C(=O)N[C@H](C(=O)NCC(N)=O)CSCC(=O)N[C@@H](Cc2ccc3ccccc3c2)C(=O)N[C@@H](Cc2ccc(O)cc2)C(=O)N[C@@H](CC(=O)O)C1=O [Ex 1305] ({CH2CO}-[2Nal]YD[NHexGly]Y[Nle]N[Cit][Tic][Ahp(2)]PVDCG-NH2; thioether N-14)

IC50: 0.0244 µM
SMILES: CCCCCCN1CC(=O)N[C@@H](Cc2ccc(O)cc2)C(=O)N[C@@H](CCCC)C(=O)N[C@@H](CC(N)=O)C(=O)N[C@@H](CCCNC(=N)N)C(=O)N(C)[C@@H](CCCC)C(=O)N[C@@H](CCCCC)C(=O)N2CCC[C@H]2C(=O)N[C@@H](C(C)(C)C)C(=O)N[C@@H](CO)C(=O)N[C@H](C(=O)N[C@@H](CC(=O)NCCOCCOCC(=O)NCCCCCCCCCCC(=O)O)C(=O)O)CSCC(=O)N[C@@H](Cc2ccccc2)C(=O)N[C@@H](Cc2ccc(O)cc2)C(=O)N[C@@H](CC(=O)O)C1=O [Example 2190] ({CH2CO}-FYD[NHexGly]Y[Nle]NR[NMeNle][Ahp(2)]P[Tle]SC[βAsp][AEEA][Aun]-OH; thioether N-14)

IC50: 0.0366 µM
SMILES: CCCCCCN1CC(=O)N[C@@H](Cc2ccc(O)cc2)C(=O)N[C@@H](CCCC)C(=O)N[C@@H](CC(=O)O)C(=O)N[C@@H](CCCN)C(=O)N(C)[C@@H](CCCC)C(=O)N[C@@H](CCCCC)C(=O)N2CCC[C@H]2C(=O)N[C@@H](C(C)(C)C)C(=O)N[C@@H](CO)C(=O)N[C@H](C(=O)N[C@@H](CC(=O)O)C(N)=O)CSCC(=O)N[C@@H](Cc2ccccc2)C(=O)N[C@@H](Cc2c[nH]c3ccccc23)C(=O)N[C@@H](CC(=O)O)C1=O [Example 1376] ({CH2CO}-FWD[NHexGly]Y[Nle]D[Orn][NMeNle][Ahp(2)]P[Tle]SCD-NH2; thioether N-14)

IC50 (cell-based binding high-content assay, mVISTA, the 15th table): 0.0091 µM
SMILES: CCCCCCN1CC(=O)N[C@@H](Cc2ccc(O)cc2)C(=O)N[C@@H](CCCC)C(=O)N[C@@H](CC(N)=O)C(=O)N[C@@H](CCCNC(=N)N)C(=O)N(C)[C@@H](C(C)CC)C(=O)N[C@@H](CCCCC)C(=O)N2CCC[C@H]2C(=O)N[C@@H](C(C)C)C(=O)N[C@@H](CC(=O)O)C(=O)N[C@H](C(=O)NCC(=O)O)CSCC(=O)N[C@@H](Cc2ccc3ccccc3c2)C(=O)N[C@@H](Cc2c[nH]c3ccccc23)C(=O)N[C@@H](CC(=O)O)C1=O (some centres unmarked) [compound 1237] ({CH2CO}-[2Nal]WD[NHexGly]Y[Nle]NR[NMeIle(3ξ)][Ahp(2)]PVDCG-OH; thioether N-14)

IC50: 0.0336 µM
SMILES: CCCCCCN1CC(=O)N[C@@H](Cc2ccc(O)cc2)C(=O)N[C@@H](CC(C)C)C(=O)N[C@@H](CC(N)=O)C(=O)N[C@@H](CCCNC(=N)N)C(=O)N(C)[C@@H](C(C)O)C(=O)N[C@@H](CCCCC)C(=O)N2CCC[C@H]2C(=O)N[C@@H](C(C)(C)C)C(=O)N[C@@H](CC(=O)O)C(=O)N[C@H](C(=O)NCCOCCOCC(=O)N[C@@H](CCC(=O)NCCOCCOCC(=O)NCCCCCCCCCCC(=O)O)C(=O)O)CSCC(=O)N[C@@H](Cc2ccccc2)C(=O)N[C@@H](Cc2c[nH]c3ccccc23)C(=O)N[C@@H](CC(=O)O)C1=O (some centres unmarked) [compound 2273] ({CH2CO}-FWD[NHexGly]YLNR[NMeThr(3ξ)][Ahp(2)]P[Tle]DC[AEEA][γGlu][AEEA][Aun]-OH; thioether N-14)

IC50 [2]: 0.0093 µM
SMILES: CCCCCCN1CC(=O)N[C@@H](Cc2ccc(O)cc2)C(=O)N[C@@H](CCCC)C(=O)N[C@@H](CC(=O)O)C(=O)N[C@@H](CCCN)C(=O)N(C)[C@@H](CCCC)C(=O)N[C@@H](CCCCC)C(=O)N2CCC[C@H]2C(=O)N[C@@H](C(C)C)C(=O)N[C@@H](CC(=O)O)C(=O)N[C@H](C(=O)N[C@@H](CC(=O)O)C(N)=O)CSCC(=O)N[C@@H](Cc2cccc(C)c2)C(=O)N[C@@H](Cc2c[nH]c3ccccc23)C(=O)N[C@@H](CC(=O)O)C1=O [compound 1439] ({CH2CO}-[Phe(3-Me)]WD[NHexGly]Y[Nle]D[Orn][NMeNle][Ahp(2)]PVDCD-NH2; thioether N-14)
